One data set relates to S. aureus ATCC49775. The data set is classed as cell-based, Staphylococcus aureus. The procedure:
(§1) Different S. aureus strains described above were first pre-cultured aerobically at 37°C for 20 h in a Mueller-Hinton-Broth (MHB) medium, pH 7.3 (Difco Laboratories, Detroit, MI). Bacteria were suspended at absorbance of 0.001 at 620 nm in the MHB medium. […] Ten µl final volumes (10–200 µg/mL) of synthetic peptides (LL-37, bCAT, hCAT and bCTL) were incubated in microtitration plates with 90 µl of a mid-logarithmic phase culture of bacteria, with a starting absorbance of 0.001 at 620 nm. In the initial inoculi, bacteria were quantified by the agar plate spreading method which was 5×10^5 colony forming units (CFU)/mL. Tetracycline (10 mg/L) and Cefotaxime (0.1 mg/L) were used as positive controls. Microbial growth was assessed by the increase of absorbance after 24 h incubation at 37°C., [29] The A620 nm value of control cultures growing in the absence of peptide and antibiotics was defined as 100% growth. A620 nm zero with the antibiotics (Tetracycline and Cefotaxime) was taken as 100% inhibition. Absence of bacterial growth was verified by agar plate spreading. Each assay was performed in triplicates.
(§2) The MIC values (µg/mL) are reported as means of three independent experiments. To determine significance, between different peptides (rows) and bacterial strains (columns), one way ANOVA was used. Overall significance and correlation was evaluated by 4×4 factorial ANOVA for independent samples. Significance was accepted at p≤0.05.

A further data set has as its system S. aureus ATCC25923. The data set is classed as cell-based, Staphylococcus aureus. The protocol: as §1, §2
Another data set concerns S. aureus S1 (MRSA). The data set is classed as cell-based, Staphylococcus aureus. The protocol:
(§3) S1 was isolated from the blood of a patient and S2 was isolated from the sputum of a neonate. After isolation and identification, S. aureus strains were assessed for their susceptibility to various antibiotics, using the agar disc diffusion method. S1 was found Methicillin resistant (MRSA) and is also resistant to Amoxicillin, Oxacillin, Amikacin, Tobramycin, Fluoroquinolones, Erythromycin and Clindamycin. However, it was susceptible to Gentamicin, Synercid, Co-trimoxazole, Rifampicin, Fusidic acid, Vancomycin, Teicoplanin and Linezolid.
as §1, §2

The subject of a further data set is S. aureus S2 (MSSA). The data set is classed as cell-based, Staphylococcus aureus. The protocol: as §3, §1, §2
For the next data set, the system named is human erythrocytes. Particulars: cited from earlier work. The source says:
Due to continuous resistance development by S. aureus, the interest for natural AMPs is increasing because some of them display potent antibacterial activity. However, secondary reactions such as hemolytic activity, [36] limit their use as systemic anti-infective drugs. Until recently, no such reaction was reported for the antimicrobial Cgs-derived peptides in the literature. Several CgA-derived peptides were previously characterized to display antimicrobial properties, [9] however, data concerning killing of S. aureus is not reported. CAT was previously reported, to be active against diff ...

The test system of a further data set is S. aureus. Briefly: Antibacterial activity against S. aureus, (strains together or not specified). The following applies: across ATCC49775, ATCC25923, S1, S2. It counts as cell-based, Staphylococcus aureus. The protocol:
as §1

Data set [1] relates to staphylococcal proteases released into bacterial supernatants. Particulars: 37°C, 24 h, RP-HPLC.
Method: S. aureus strains were precultured and plated on the agar plates and cultivated for 24 h at 37°C. After incubation, one colony per isolate was transferred to 10 mL of the MHB medium and incubated at 37°C for about 30 h to late stationary growth phase. After incubation, cultures were centrifuged at 10,000×g for 15 min and supernatants were filtered using a 0.22 µM Millex®-GV (Millipore, Carrigtwohill, Ireland) to eliminate bacteria. The supernatants were stored at −20°C until further use. In order to check sterility, 1 mL of each supernatant was incubated at 37°C for 48 h. Absence of a colony was interpreted as lack of viable bacteria.
Triplicate wells were treated for each concentration of peptide. In parallel, several controls were performed: with and without peptides in MHB medium.
For which, protease inhibitor cocktail (complete protease inhibitors except metalloproteases) (Roche Diagnostic GmbH, Mannheim, Germany) supplemented with 100 µM of 1–10 phenanthroline (metalloprotease inhibitor) (Sigma Aldrich GmbH, Steinheim, Germany) was added to bacterial supernatants before the addition of synthetic peptides. The whole suspension was incubated at 37°C for 24 h prior to being analyzed by RP-HPLC.
The synthetic peptides treated with bacterial supernatants and different controls including culture medium, bacterial supernatants, and synthetic peptides were separated using a Dionex HPLC system (Ultimate 3000; Sunnyvale, CA USA) on a Nucleosil reverse-phase 300–5C18-column (4×250 mm; particle size, 5 µm; porosity, 300 Å) (Macherey Nagel Hoerdt, France). Absorbance was monitored at 214 nm, and the solvent system consisted of 0.1% (v/v) TFA in water (solvent A) and 0.09% (v/v) TFA in 70% (v/v) acetonitrile-water (solvent B). Elution was performed at a flow rate of 700 µL/min, with the gradient as indicated on chromatograms. Fractions were collected with one min time interval. They were subsequently concentrated by evaporation by using a speed-vac, however not allowing them to dry completely.
The N-terminal sequence of purified peptides was determined by automatic Edman degradation analysis on a Procise microsequencer (Applied Biosystems, Courtaboeuf, France). Samples purified by HPLC were loaded on polybrene-treated glass-fiber filters. Phenylthiohydantoin-amino acids (Pth-Xaa) were identified by chromatography on a C18 column (PTH C-18, 2.1 mm×200 mm).
Mass determination was carried out on a Brucker BIFLEX™ Matrix-Assisted Laser Desorption Ionization – Time-Of-Flight mass spectrometer (MALDI-TOF) (equipped with the high resolution optics (SCOUT™) with X–Y multi-sample probe, a gridless reflector and with the HIMAS™ linear detector). With a maximum accelerating potential of 30 kV, the system can be operated either in linear or the reflective mode. Ionization was carried out with a 337-nm beam from a nitrogen laser with a repetition rate of 3 Hz. The output signal from the detector was digitized at a sampling rate of 250 MHz in linear mode and 500 MHz in reflector mode using a 1 GHz digital oscilloscope (Lecroy model). Brucker supplied software hosted in Sun sparcworkstation was used for data processing and the instrumental control. […] These studies were realized using the matrix α-cyano-4-hydroxycinnamic acid, obtained from Sigma, and prepared as a saturated solution in acetone. A total of 1–2 µl of the sample matrix aliquot solution was deposited on the probe and dried by ambient air. A thin layer matrix crystal was obtained after rapid spreading and evaporation. […] A micromolar analyte solution was applied to the matrix and allowed to dry under moderate vacuum. The whole preparation was washed by 1 μl of trifluoroacetic acid (0.5%) aqueous solution. This cleaning procedure helps remove remaining alkaline cations and often leads to an increase in sensitivity.
Data set [2] has as its system S. aureus metallo-protease aureolysin. The following applies: cited from earlier work. An excerpt:
Staphylococcus aureus is the most frequently isolated pathogen in Gram-positive sepsis, often involved in blood clotting disorders and destruction of endocardial tissue. S. aureus has developed several mechanisms to avoid immune response including resistance to AMPs, [13] impairment of phagocyte recruitment, [14] escape from neutrophil extracellular traps, [15] interference with complement, [16] neutrophil lysis, resistance to oxidative burst and non-specific binding and degradation of immunoglobulins. The AMPs evasion mechanisms deployed by S. aureus include prote ...

Where [3] appears, read: MIC = 100% growth inhibition, MHB pH 7.3, 5×10^5 CFU/mL, 24 h 37°C, A620 nm, mean of triplicate (n = 3).

Values after ≈ are worked out from the molar mass of the structure shown. Read-outs that look alike come from different tables or passages of the source. Where no end group is shown, it is not given here.

Consider RSMRLSFRARGYGFR [bCTL, cateslytin], for which the minimum inhibitory concentration (MIC) against S. aureus ATCC49775 (ATCC49775, 24 h, pH 7.3) is given as 37 µg/mL; against S. aureus ATCC25923 (ATCC25923, 24 h, pH 7.3), 40 µg/mL; in the data set on S. aureus S1 (MRSA) (S1, 24 h, pH 7.3) it was 37 µg/mL; in the data set on S. aureus S2 (MSSA) (S2, 24 h, pH 7.3) it was 45 µg/mL. Also, in the data set on human erythrocytes, the hemolytic activity result is reported as “not hemolytic”. Also, the “MIC value against different strains of S. aureus” value against S. aureus fell in the range of 37 to 45 µg/mL. Moreover, in data set [1] (ATCC49775, ATCC25923, S1, S2 supernatants, peptide at MIC concentration), the “degradation by any of the staphylococcal strains tested (four supernatants)” value was “not degraded”. The “degradation by four strain supernatants in presence of protease inhibitors” value in data set [1] (protease inhibitor cocktail + 100 µM 1–10 phenanthroline) was “remains unaffected”.
For the molecule `CC[C@H](C)[C@H](NC(=O)[C@H](CCCCN)NC(=O)[C@H](CCC(=O)O)NC(=O)[C@H](CCCCN)NC(=O)[C@H](CO)NC(=O)[C@H](CCCCN)NC(=O)[C@H](CCCNC(=N)N)NC(=O)[C@H](Cc1ccccc1)NC(=O)[C@H](Cc1ccccc1)NC(=O)[C@H](CC(=O)O)NC(=O)CNC(=O)[C@H](CC(C)C)NC(=O)[C@@H](N)CC(C)C)C(=O)NCC(=O)N[C@@H](CCCCN)C(=O)N[C@@H](CCC(=O)O)C(=O)N[C@@H](Cc1ccccc1)C(=O)N[C@@H](CCCCN)C(=O)N[C@@H](CCCNC(=N)N)C(=O)N[C@H](C(=O)N[C@H](C(=O)N[C@@H](CCC(N)=O)C(=O)N[C@@H](CCCNC(=N)N)C(=O)N[C@H](C(=O)N[C@@H](CCCCN)C(=O)N[C@@H](CC(=O)O)C(=O)N[C@@H](Cc1ccccc1)C(=O)N[C@@H](CC(C)C)C(=O)N[C@@H](CCCNC(=N)N)C(=O)N[C@@H](CC(N)=O)C(=O)N[C@@H](CC(C)C)C(=O)N[C@H](C(=O)N1CCC[C@H]1C(=O)N[C@@H](CCCNC(=N)N)C(=O)N[C@H](C(=O)N[C@@H](CCC(=O)O)C(=O)N[C@@H](CO)C(=O)O)[C@@H](C)O)C(C)C)[C@@H](C)CC)C(C)C)[C@@H](C)CC` [LL-37, reference compound], the MIC turned out to be 30 µg/mL (≈ 6.68 µM) against S. aureus ATCC49775 (setting [3]), 30 µg/mL (≈ 6.68 µM) against S. aureus ATCC25923 (setting [3]), 30 µg/mL (≈ 6.68 µM) against S. aureus S1 (MRSA) (setting [3]) and 35 µg/mL (≈ 7.79 µM) in the data set with S. aureus S2 (MSSA) (setting [3]). The cleavage by aureolysin entry in data set [2] was “cleave and inactivate”.

(Values after PMC3722296 (PLoS ONE, 2013).)
